The values that follow come from patent US8501936B2 (priority 2009, dated 2013).

Experiment [1] concerns the target human JAK2 (Homo sapiens (Human), UniProt O60674). The note with it: read-out: JAK2 IC50.
The target of experiment [2] is human FAK (Homo sapiens (Human), UniProt Q05397). The note with it: read-out: FAK IC50.
Chain of human FAK (Q05397 whole entry): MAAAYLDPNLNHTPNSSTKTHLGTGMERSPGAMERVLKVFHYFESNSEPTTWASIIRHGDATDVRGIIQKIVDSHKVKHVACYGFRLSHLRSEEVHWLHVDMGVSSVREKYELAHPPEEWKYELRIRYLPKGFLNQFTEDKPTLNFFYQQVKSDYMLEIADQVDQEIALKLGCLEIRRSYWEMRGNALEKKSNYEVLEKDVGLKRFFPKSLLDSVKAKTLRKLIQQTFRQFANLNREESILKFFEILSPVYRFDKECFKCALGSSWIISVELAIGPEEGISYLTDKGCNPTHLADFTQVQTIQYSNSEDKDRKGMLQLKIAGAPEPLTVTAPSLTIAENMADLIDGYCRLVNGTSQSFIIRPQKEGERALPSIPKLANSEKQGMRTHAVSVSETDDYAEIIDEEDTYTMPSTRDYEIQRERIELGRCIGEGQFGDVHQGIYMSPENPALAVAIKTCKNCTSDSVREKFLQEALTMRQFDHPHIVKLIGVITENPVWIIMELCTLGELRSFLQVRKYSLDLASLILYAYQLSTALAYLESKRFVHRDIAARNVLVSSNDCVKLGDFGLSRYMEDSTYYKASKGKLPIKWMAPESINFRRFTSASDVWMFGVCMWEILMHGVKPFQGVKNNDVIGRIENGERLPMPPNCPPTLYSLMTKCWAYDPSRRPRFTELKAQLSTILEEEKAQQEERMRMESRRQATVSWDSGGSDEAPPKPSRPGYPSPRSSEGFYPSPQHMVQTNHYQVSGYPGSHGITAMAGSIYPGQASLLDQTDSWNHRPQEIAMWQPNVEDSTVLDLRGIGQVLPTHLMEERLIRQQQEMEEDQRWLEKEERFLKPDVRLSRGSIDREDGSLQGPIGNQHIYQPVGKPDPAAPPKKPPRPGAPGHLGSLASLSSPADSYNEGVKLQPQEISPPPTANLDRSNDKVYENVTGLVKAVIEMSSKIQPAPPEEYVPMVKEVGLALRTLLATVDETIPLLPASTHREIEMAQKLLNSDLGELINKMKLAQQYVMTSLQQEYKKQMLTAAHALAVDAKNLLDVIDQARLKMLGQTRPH

Chain of human JAK2 (O60674 815-1132): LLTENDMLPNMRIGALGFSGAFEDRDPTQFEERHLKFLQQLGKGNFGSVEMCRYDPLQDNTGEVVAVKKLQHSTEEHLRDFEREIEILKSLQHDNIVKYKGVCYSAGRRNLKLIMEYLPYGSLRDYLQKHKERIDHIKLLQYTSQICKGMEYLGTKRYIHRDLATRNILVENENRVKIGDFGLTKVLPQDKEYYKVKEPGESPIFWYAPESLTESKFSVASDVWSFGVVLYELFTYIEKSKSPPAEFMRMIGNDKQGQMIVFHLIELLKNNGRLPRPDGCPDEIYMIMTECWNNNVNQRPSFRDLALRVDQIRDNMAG

Usually IC50 stands for the concentration that gives 50% inhibition. `COc1ncc(C(F)(F)F)cc1-c1cccn2nc(Nc3ccc(C4CCNCC4)cc3)nc12` [Example 278, [8-(2-Methoxy-5-trifluoromethyl-pyridin-3-yl)-[1,2,4]triazolo[1,5-a]pyridine-2-yl]-(4-piperidine-4-yl-phenyl)-amine]: the figures for the IC50 in experiment [1] and in experiment [2] were 0.133 µM and 10 µM, respectively.

Regarding `CN1CCN(c2ccc(Nc3nc4c(Nc5ccccc5CN(C)S(C)(=O)=O)cccn4n3)cc2)CC1` [Example 171, N-Methyl-N-(2-{2-[4-(4-methyl-piperazin-1-yl)-phenylamino]-[1,2,4]triazolo[1,5-a]pyridin-8-ylamino}-benzyl)-methanesulfonamide], the 50% inhibitory concentration (IC50) in experiment [1] stood at 0.0708 µM; in experiment [2] it was 0.999 µM.

For the compound `CN(Cc1ccccc1CNc1cccn2nc(Nc3ccc(OCCN4CCCC4)cc3)nc12)S(C)(=O)=O` [Example 158, N-Methyl-N-[2-({2-[4-(2-pyrrolidin-1-yl-ethoxy)-phenylamino]-[1,2,4]triazolo[1,5-a]pyridin-8-ylamino}-methyl)-benzyl]-methanesulfonamide], the IC50 was determined as 0.0975 µM in experiment [1] and 0.276 µM in experiment [2].

Take `CN(c1ccccc1CNc1cccn2nc(Nc3ccc4cnccc4c3)nc12)S(C)(=O)=O` [Example 201, N-(2-{[2-(Isoquinolin-6-ylamino)-[1,2,4]triazolo[1,5-a]pyridin-8-ylamino]-methyl}-phenyl)-N-methyl-methanesulfonamide]: the IC50 in experiment [1] was determined as 0.116 µM; in experiment [2], 0.167 µM.

With `CN1CCC(c2cccc(Nc3nc4c(-c5cccc(N(C)S(C)(=O)=O)c5)cccn4n3)c2)CC1` [Example 129, N-Methyl-N-(3-{2-[3-(1-methyl-piperidin-4-yl)-phenylamino]-[1,2,4]triazolo[1,5-a]pyridin-8-yl}-phenyl)-methanesulfonamide], the results for the IC50 in experiment [1] and in experiment [2] were 0.00888 µM and 0.759 µM, respectively.

`CS(=O)(=O)c1ccc(Nc2nc3c(-c4ccc(S(C)(=O)=O)cc4)cccn3n2)cc1` [Example 112, (4-Methanesulfonyl-phenyl)-[8-(4-methanesulfonyl-phenyl)-[1,2,4]triazolo[1,5-a]pyridin-2-yl]-amine]: the results for the half-maximal inhibitory concentration (IC50) in experiment [1] and in experiment [2] were 0.0013 µM and 0.531 µM, respectively.

For `CS(=O)(=O)c1ccc(-c2cccn3nc(Nc4cccc(N5CCN(CCCF)CC5)c4)nc23)cc1` [Example 187, {3-[4-(3-Fluoro-propyl)-piperazin-1-yl]-phenyl}-[8-(4-methanesulfonyl-phenyl)-[1,2,4]triazolo[1,5-a]pyridin-2-yl]-amine], the concentration for half-maximal inhibition (IC50) came out at 0.00493 µM in experiment [1] and 2.44 µM in experiment [2].

For `CN1CCN(c2cccc(Nc3nc4c(NCc5ccc(F)cc5)cccn4n3)c2)CC1` [Example 396, N(8)-(4-Fluoro-benzyl)-N(2)-[3-(4-methyl-piperazin-1-yl)-phenyl]-[1,2,4]triazolo[1,5-a]pyridine-2,8-diamine], the IC50 in experiment [1] worked out at 1.43 µM; in experiment [2], 10 µM.

For `COc1ccc(Nc2nc3cccc(-c4ccc(S(C)(=O)=O)cc4)n3n2)cc1` [Example 91, [5-(4-Methanesulfonyl-phenyl)-[1,2,4]triazolo[1,5-a]pyridin-2-yl]-(4-methoxy-phenyl)-amine], the half-inhibitory concentration (IC50) stood at 0.0019 µM in experiment [1] and 2.6 µM in experiment [2].

Regarding `CCOc1ccc(C(F)(F)F)cc1-c1cccn2nc(Nc3ccc4c(c3)CCN(CCS(C)(=O)=O)CC4)nc12` [Example 320, [8-(2-Ethoxy-5-trifluoromethyl-phenyl)-[1,2,4]triazolo[1,5-a]pyridin-2-yl]-[3-(2-methanesulfonyl-ethyl)-2,3,4,5-tetrahydro-1H-3-benzazepin-7yl)-amine], the concentration for half-maximal inhibition (IC50) in experiment [1] was 0.16 µM; in experiment [2] it was 3 µM.

For the compound `COc1ccccc1CNc1cccn2nc(Nc3cccc(N4CCN(C)CC4)c3)nc12` [Example 388, N(8)-(2-Methoxy-benzyl)-N(2)-[3-(4-methyl-piperazin-1-yl)-phenyl]-[1,2,4]triazolo[1,5-a]pyridine-2,8-diamine], the concentration for half-maximal inhibition (IC50) in experiment [1] stood at 0.046 µM; in experiment [2] it was 0.951 µM.

Take `CCCOc1ccc(Cl)cc1-c1cccn2nc(Nc3ccc4c(c3)CCNCC4)nc12` [Example 307, [8-(5-Chloro-2-propoxy-phenyl]-[1,2,4]triazolo[1,5a]pyridine-2-yl]-(2,3,4,5-tetrahydro-benzo[d]azepin-7-yl)-amine]: the half-inhibitory concentration (IC50) in experiment [1] stood at 0.828 µM; in experiment [2], 1.05 µM.

In the case of `Fc1ccc(-n2cc(-c3cccn4nc(Nc5ccc(C6CCNCC6)cc5)nc34)cn2)cc1` [Example 282], the IC50 in experiment [1] worked out at 0.00212 µM; in experiment [2], 0.999 µM.

Regarding `COc1ccc(Nc2nc3c(Nc4ccccc4S(C)(=O)=O)cccn3n2)cc1` [Example 47, N(8)-(2-Methanesulfonyl-phenyl)-N(2)-(4-methoxy-phenyl)-[1,2,4]triazolo[1,5-a]pyridine-2,8-diamine], the IC50 was determined as 0.0128 µM in experiment [1] and 3 µM in experiment [2].

In the case of `CS(=O)(=O)CCN1CCc2ccc(Nc3nc4c(-c5cccc6c5OC(F)(F)O6)cccn4n3)cc2CC1` [Example 247, [8-(2,2-difluoro-1,3-benzodioxol-4-yl)-[1,2,4]triazolo[1,5-a]pyridin-2-yl]-[3-(2-methanesulfonyl-ethyl)-2,3,4,5-tetrahydro-1H-3-benzazepin-7-yl)amine], the IC50 in experiment [1] was determined as 0.0248 µM; in experiment [2], 2 µM.

With `COc1ccc(C(F)(F)F)cc1-c1cccc2nc(Nc3ccc4c(c3)CCNCC4)nn12` [Example 234, [5-(2-Methoxy-5-trifluoromethyl-phenyl)-[1,2,4]triazolo[1,5-a]pyridine-2-yl]-(2,3,4,5-tetrahydro-1H-benzo[d]azepin-7-yl)-amine], the IC50 is 0.0234 µM in experiment [1] and 0.547 µM in experiment [2].

For the compound `CN1CCN(c2cccc(Nc3nc4c(NCc5cccnc5)cccn4n3)c2)CC1` [Example 153, N(2)-[3-(4-Methyl-piperazin-1-yl)-phenyl]-N(8)-pyridin-3-ylmethyl-[1,2,4]triazolo[1,5-a]pyridine-2,8-diamine], the IC50 in experiment [1] amounted to 0.647 µM; in experiment [2], 6.5 µM.

In the case of `CS(=O)(=O)c1ccc(-c2cccn3nc(Nc4ccc(OCCN5CCOCC5)cc4)nc23)cc1` [Example 26, [8-(4-Methanesulfonyl-phenyl)-[1,2,4]triazolo[1,5-a]pyridin-2-yl]-[4-(2-morpholin-4-yl-ethoxy)-phenyl]-amine], the IC50 stood at 0.0013 µM in experiment [1] and 0.585 µM in experiment [2].

On to `Cc1ccc(OCC(C)C)c(-c2cccn3nc(Nc4ccc5c(c4)CCNCC5)nc23)c1` [Example 305, [8-(2-Isobutoxy-5-methyl-phenyl]-[1,2,4]triazolo[1,5a]pyridine-2-yl]-(2,3,4,5-tetrahydro-benzo[d]azepin-7-yl)-amine], for which the IC50 was determined as 3.08 µM in experiment [1] and 10 µM in experiment [2].

In the case of `CC(C)COc1ccc(C(F)(F)F)cc1-c1cccn2nc(Nc3ccc4c(c3)CCN(CC(=O)N(C)C)CC4)nc12` [Example 380], the IC50 in experiment [1] and in experiment [2] was 3 µM each time.

On to `CN(Cc1ccccc1Nc1cccn2nc(Nc3ccc(OCCN4CCCC4)cc3)nc12)S(C)(=O)=O` [Example 173, N-Methyl-N-(2-{2-[4-(2-pyrrolidin-1-yl-ethoxy)-phenylamino]-[1,2,4]triazolo[1,5-a]pyridin-8-ylamino}-benzyl)-methanesulfonamide], for which the results for the IC50 in experiment [1] and in experiment [2] were 0.143 µM and 2 µM, respectively.

As to `COc1cnc(-c2cccn3nc(Nc4ccc(C5CCN(CC(=O)N(C)C)CC5)cc4)nc23)cn1` [Example 286, 2-(4-{4-[8-(5-Methoxy-pyrazin-2-yl)-[1,2,4]triazolo[1,5-a]pyridine-2-ylamino]-phenyl}-piperidin-1-yl)-N,N-dimethyl-acetamide], the half-maximal inhibitory concentration (IC50) in experiment [1] turned out to be 0.134 µM; in experiment [2], 3 µM.

On to `CN1CCN(C2CCN(c3ccc(Nc4nc5c(-c6ccc(S(C)(=O)=O)cc6)cccn5n4)cc3)CC2)CC1` [Example 51, [8-(4-Methanesulfonyl-phenyl)-[1,2,4]triazolo[1,5-a]pyridin-2-yl]-{4-[4-(4-methyl-piperazin-1-yl)-piperidin-1-yl]-phenyl}-amine], for which the IC50 amounted to 0.0018 µM in experiment [1] and 0.168 µM in experiment [2].

Regarding `COCc1ccccc1-c1cccc2nc(Nc3ccc4c(c3)CCN(CCS(C)(=O)=O)CC4)nn12` [Example 230, [3-(2-Methanesulfonyl-ethyl)-2,3,4,5-tetrahydro-1H-benzo[d]azepin-7-yl]-[5-(2-methoxymethyl-phenyl)-[1,2,4]triazolo[1,5-a]pyridin-2-yl]-amine], the half-maximal inhibitory concentration (IC50) in experiment [1] was 0.0276 µM; in experiment [2], 2 µM.

Turning to `FC(F)COc1ccc(C(F)F)cc1-c1cccn2nc(Nc3ccc4c(c3)CCNCC4)nc12` [Example 384, {8-[2-(2,2-Difluoro-ethoxy)-5-difluoromethyl-phenyl]-[1,2,4]triazolo[1,5-a]pyridin-2-yl}-(2,3,4,5-tetrahydro-1H-3-benzazepin-7-yl)-amine], the IC50 in experiment [1] amounted to 0.203 µM; in experiment [2] it was 1.08 µM.

With `CN1CCN(c2ccc(Nc3nc4cccc(-c5ccc(NS(C)(=O)=O)cc5)n4n3)cc2)CC1` [Example 84, N-(4-{2-[4-(4-Methyl-piperazin-1-yl)-phenylamino]-[1,2,4]triazolo[1,5-a]pyridin-5-yl}-phenyl)-methanesulfonamide], the values for the IC50 in experiment [1] and in experiment [2] were 0.0028 µM and 2.28 µM, respectively.

`CP(C)(=O)c1ccc(-c2cccn3nc(Nc4cccc(C5CCN(CCS(C)(=O)=O)CC5)c4)nc23)cc1` [Example 203, {8-[4-(Dimethyl-phosphinoyl)-phenyl]-[1,2,4]triazolo[1,5-a]pyridin-2-yl}-{3-[1-(2-methanesulfonyl-ethyl)-piperidin-4-yl]-phenyl}-amine]: the IC50 in experiment [1] is 0.166 µM; in experiment [2], 10 µM.

On to `CS(=O)(=O)c1ccc(-c2cccc3nc(Nc4ccc(CN5CCS(=O)(=O)CC5)cc4)nn23)cc1` [Example 115, N-{4-[(1,1-dioxidothiomorpholin-4-yl)methyl]phenyl}-5-[4-(methylsulfonyl)phenyl][1,2,4]triazolo[1,5-a]pyridin-2-amine], for which the figures for the IC50 in experiment [1] and in experiment [2] were 0.00066 µM and 1.05 µM, respectively.

For the compound `CCOc1ccccc1-c1cccn2nc(Nc3ccc4c(c3)CCN(CC(=O)N(C)C)CC4)nc12` [Example 246], the figures for the concentration for half-maximal inhibition (IC50) in experiment [1] and in experiment [2] were 0.212 µM and 10 µM, respectively.
